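Test compounds were applied to cells in 96-well plates for 48 hours at 5 doses. The concentration for 50% growth inhibition is given as GI50.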 Activity calls are given as the source filed them. No stated cut-off is given here; in the data, active = GI50 up to about 1.1 µM and inactive = higher.
Assays:
Experiment in all cases: DTP human tumour cell line panel, 48 h
[1] = test system: SK-OV-3
[2] = test system: SW-620
[3] = test system: HCC 2998
[4] = test system: RXF 393
[5] = test system: SNB-19
[6] = test system: SK-MEL-2
[7] = test system: MDA-MB-435
[8] = test system: UACC-257
[9] = test system: SF-268
[10] = test system: SN12C
[11] = test system: HL-60
[12] = test system: U-251
[13] = test system: MDA-N
[14] = test system: HT-29
[15] = test system: RPMI-8226
[16] = test system: DU-145
[17] = test system: UO-31
[18] = test system: DLD-1
[19] = test system: Malme-3M
[20] = test system: NCI-H460

`CCOC(=O)/C(=C\c1ccccc1)C(=O)CCN1CCOCC1` was tested, and the GI50 [1] was 23 µM (inactive), the GI50 [2] was 2.33 µM (inactive) and the GI50 [3] was 17.8 µM (inactive). For the same compound, the GI50 [4] was 2.86 µM (inactive), the GI50 [5] was 16.2 µM (inactive) and the GI50 [6] was 17.8 µM (inactive). The GI50 [7] was 19 µM (inactive), the GI50 [8] was 4.58 µM (inactive) and the GI50 [9] was 8.17 µM (inactive). For the same compound, the GI50 [10] was 8.65 µM (inactive), the GI50 [11] was 1.4 µM (inactive) and the GI50 [12] was 8.55 µM (inactive). The GI50 [13] was 6.03 µM (inactive), the GI50 [14] was 6.3 µM (inactive) and the GI50 [15] was 2.07 µM (inactive). For the same compound, the GI50 [16] was 17.2 µM (inactive), the GI50 [17] was 16.9 µM (inactive) and the GI50 [18] was 2.43 µM (inactive). The GI50 [19] was 2.7 µM (inactive) and the GI50 [20] was 14.4 µM (inactive).

For `Nc1ccccc1C(=O)CCC1C(=O)NC(=S)NC1=O`, the GI50 [1] was > 100 µM (inactive), the GI50 [2] was > 100 µM (inactive) and the GI50 [3] was > 100 µM (inactive). For the same compound, the GI50 [4] was > 100 µM (inactive), the GI50 [5] was > 100 µM (inactive) and the GI50 [6] was > 100 µM (inactive). For the same compound, the GI50 [8] was > 100 µM (inactive), the GI50 [9] was > 100 µM (inactive) and the GI50 [11] was > 100 µM (inactive). The GI50 [12] was > 100 µM (inactive), the GI50 [13] was > 100 µM (inactive) and the GI50 [14] was > 100 µM (inactive). The GI50 [15] was > 100 µM (inactive), the GI50 [16] was > 100 µM (inactive) and the GI50 [17] was > 100 µM (inactive). For the same compound, the GI50 [18] was > 100 µM (inactive), the GI50 [19] was > 100 µM (inactive) and the GI50 [20] was > 100 µM (inactive).

`O=c1oc2ccccc2c(O)c1C(C/C(CCN1CCCC1)=N/O)c1ccccc1` (stereo unspecified) was tested, and the GI50 [1] was > 100 µM (inactive), the GI50 [2] was > 100 µM (inactive) and the GI50 [3] was > 100 µM (inactive). For the same compound, the GI50 [5] was > 100 µM (inactive), the GI50 [6] was > 100 µM (inactive) and the GI50 [7] was > 100 µM (inactive). For the same compound, the GI50 [8] was > 100 µM (inactive), the GI50 [9] was > 100 µM (inactive) and the GI50 [10] was > 100 µM (inactive). For the same compound, the GI50 [11] was > 31.6 µM (inactive), the GI50 [12] was > 100 µM (inactive) and the GI50 [13] was > 100 µM (inactive). For the same compound, the GI50 [14] was > 100 µM (inactive), the GI50 [15] was > 94.8 µM (inactive) and the GI50 [16] was > 100 µM (inactive). The GI50 [17] was > 100 µM (inactive), the GI50 [18] was > 100 µM (inactive) and the GI50 [19] was > 100 µM (inactive). For the same compound, the GI50 [20] was > 100 µM (inactive).

For `CCCS(=O)(=O)/C(=C(\c1ccc(Br)cc1)S(=O)(=O)CCC)c1ccc(Br)cc1`, the GI50 [1] was > 10 µM (inactive), the GI50 [2] was > 10 µM (inactive) and the GI50 [3] was > 10 µM (inactive). For the same compound, the GI50 [4] was > 10 µM (inactive), the GI50 [5] was > 10 µM (inactive) and the GI50 [6] was > 10 µM (inactive). For the same compound, the GI50 [8] was > 10 µM (inactive), the GI50 [9] was > 10 µM (inactive) and the GI50 [10] was > 10 µM (inactive). For the same compound, the GI50 [11] was > 10 µM (inactive), the GI50 [12] was > 10 µM (inactive) and the GI50 [14] was > 10 µM (inactive). The GI50 [15] was > 10 µM (inactive), the GI50 [17] was > 10 µM (inactive) and the GI50 [18] was > 10 µM (inactive). For the same compound, the GI50 [19] was > 10 µM (inactive) and the GI50 [20] was > 10 µM (inactive).

In the case of `CCN(CC)CCNc1ccc2ncn3c4ccc(OC)cc4c(=O)c1c23`, the GI50 [1] is reported as 7.71 µM (inactive), the GI50 [2] is reported as 1.36 µM (inactive) and the GI50 [3] is reported as 2.78 µM (inactive). The GI50 [4] was 2.23 µM (inactive), the GI50 [5] was 3.76 µM (inactive) and the GI50 [6] was 9.25 µM (inactive). The GI50 [7] was 5.21 µM (inactive), the GI50 [8] was 11.9 µM (inactive) and the GI50 [9] was 2.21 µM (inactive). The GI50 [10] was 2.14 µM (inactive), the GI50 [11] was 3.49 µM (inactive) and the GI50 [12] was 1.38 µM (inactive). The GI50 [13] was 5.18 µM (inactive), the GI50 [14] was 1.28 µM (inactive) and the GI50 [15] was 1.21 µM (inactive). For the same compound, the GI50 [16] was 8.28 µM (inactive), the GI50 [17] was 1.82 µM (inactive) and the GI50 [18] was 1.08 µM (active). The GI50 [19] was 9.12 µM (inactive) and the GI50 [20] was 0.646 µM (active).

`c1ccc(C2CC(c3ccc4ccccc4c3)=Nc3ccccc3S2)cc1` (stereo unspecified) was tested, and the GI50 [1] was 38.5 µM (inactive), the GI50 [2] was 18.8 µM (inactive) and the GI50 [3] was 11.9 µM (inactive). The GI50 [4] was 19.1 µM (inactive), the GI50 [5] was 19.1 µM (inactive) and the GI50 [6] was 18.1 µM (inactive). For the same compound, the GI50 [8] was 19.5 µM (inactive), the GI50 [9] was 17 µM (inactive) and the GI50 [10] was 16.7 µM (inactive). The GI50 [11] was 19.5 µM (inactive), the GI50 [12] was 17.3 µM (inactive) and the GI50 [14] was 17.1 µM (inactive). The GI50 [15] was 3.26 µM (inactive), the GI50 [17] was 12.5 µM (inactive) and the GI50 [18] was > 10 µM (inactive). For the same compound, the GI50 [19] was 19.4 µM (inactive) and the GI50 [20] was 15.7 µM (inactive).

From ChEMBL document CHEMBL1201862, “PubChem BioAssay data set” (2004)
